Assay results: ChEMBL document CHEMBL1138604, “Structure-activity relationships of lipopolysaccharide sequestration in N-alkylpolyamines” (Bioorg Med Chem Lett, 2009)
The source made the active and inactive calls. The calls are words filed in the database; no cut-off is given here.

System: HEK293
Assay: Inhibition of LPS-induced NF-kappaB nuclear transactivation in HEK293 cells transfected with TLR4 coexpressing MD2 and CD14 co-receptor assessed as alkaline phosphatase activity by spectrophotometry
Type: cell-based
Settings: Homo sapiens

## CCCCCCCCCCCCCCCCNCCCNCCCNCCCCNCCCN
  Activity: Active

## CCCCCCCCCCCCCCCCNCCCNCCCCNCCCN
  Activity: Active

## CCCCCCCCCCCCCCCCNCCCNCCCNCCCNCCCN
  Activity: Active

## CCCCCCCCCCCCCCCCNCCCNCCCNCCCN
  Activity: Active

## CCCCCCCCCCCCCCCCNCCCNCCCNCCCCNCCCNCCCN
  Activity: Active

## CCCCCCCCCCCCCCCCNCCCNCCCNCCCNCCCNCCCN
  Activity: Active
